In PubChem BioAssay (NCI) one finds TGI and GI50 data, which are given here for 24 compounds.

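96-well plates; 48 h exposure; 5 concentrations. Endpoints by linear interpolation between flanking doses. Not reached: highest tested concentration assigned. At the GI50, growth is halved. TGI denotes the concentration required for complete inhibition of growth.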

Among the test systems are SK-MEL-5 melanoma; HT29 colon; COLO 205 colon; SN12C renal; MALME-3M melanoma; RPMI-8226 leukemia; ACHN renal; HL-60(TB) leukemia; SNB-75 CNS.
What all share (assay): NCI anticancer screen, dose series, 48 h

Take `COC(=O)C1=CC(=O)C(C(=O)Nc2ccc(OC)cc2)C(c2ccccc2)O1` (centres undefined): the TGI in the assay with SK-MEL-5 melanoma is more than 73.7 µM; in the assay with HT29 colon, more than 100 µM; in the assay on COLO 205 colon, more than 100 µM; in the assay on SN12C renal, more than 89.1 µM; in the assay on MALME-3M melanoma, more than 84.8 µM; in the assay on RPMI-8226 leukemia it was more than 100 µM. The values for the TGI in the assay on ACHN renal, in the assay with HL-60(TB) leukemia and with SNB-75 CNS were more than 71.9 µM, more than 100 µM and 43.1 µM, respectively.

For `O=c1[nH]nc(-c2ccccc2)c(-c2ccccc2)c1-n1nc(-c2ccccc2)c2ccccc2c1=O`, the TGI in the assay with SK-MEL-5 melanoma, with HT29 colon, in the assay with COLO 205 colon, in the assay with SN12C renal, in the assay with MALME-3M melanoma and with RPMI-8226 leukemia was more than 100 µM each time. Besides, the TGI with ACHN renal and in the assay with SNB-75 CNS was more than 100 µM in each case.

On to `[N-]=[N+]=Nc1ccc(S(=O)(=O)Oc2cc(OS(=O)(=O)c3ccc(N=[N+]=[N-])cc3)cc(OS(=O)(=O)c3ccc(N=[N+]=[N-])cc3)c2)cc1`, for which the TGI was more than 100 µM in the assay with SK-MEL-5 melanoma; more than 100 µM in the assay with HT29 colon; more than 10 µM in the assay on COLO 205 colon; more than 10 µM in the assay on SN12C renal; more than 100 µM with MALME-3M melanoma; more than 100 µM in the assay on RPMI-8226 leukemia. Further, the TGI in the assay on ACHN renal and in the assay on SNB-75 CNS was more than 10 µM throughout.

In the case of `COC1CCC(=C2C(=O)OC(C)(C)OC2=O)N1` (centres undefined), the TGI in the assay with HT29 colon, in the assay on COLO 205 colon, with SN12C renal, in the assay with MALME-3M melanoma, in the assay with RPMI-8226 leukemia and in the assay on ACHN renal was more than 100 µM in each case. Further, the TGI in the assay on HL-60(TB) leukemia and with SNB-75 CNS was more than 100 µM throughout.

As for `COC(=O)C1Cc2c([nH]c3ccccc23)[C@H](CC(C)C)N1` (some centres undefined), the TGI with HT29 colon, in the assay on COLO 205 colon, in the assay on SN12C renal, with MALME-3M melanoma, with RPMI-8226 leukemia and in the assay with ACHN renal was more than 100 µM in each case. Moreover, the TGI with HL-60(TB) leukemia and in the assay with SNB-75 CNS was more than 100 µM each time.

Turning to `CC(=O)OC1COC(N2C(=O)C(=O)c3c(C)cc(Cl)nc32)C(OC(C)=O)C1OC(C)=O` (centres undefined), the TGI with SK-MEL-5 melanoma, with HT29 colon, in the assay on COLO 205 colon, in the assay on SN12C renal, with MALME-3M melanoma and with RPMI-8226 leukemia was more than 100 µM throughout. In addition, the TGI in the assay with ACHN renal, with HL-60(TB) leukemia and in the assay with SNB-75 CNS was more than 100 µM throughout.

In the case of `CC(=O)NNc1nc(C)c(C(/C=C/c2ccc(/C=C/C(=N\NC(=O)c3ccncc3)c3sc(NNC(C)=O)nc3C)cc2)=N/NC(=O)c2ccncc2)s1`, the TGI with SK-MEL-5 melanoma, in the assay with HT29 colon, with COLO 205 colon, in the assay with SN12C renal, with MALME-3M melanoma and in the assay with RPMI-8226 leukemia was more than 100 µM throughout. Further, the TGI with ACHN renal, in the assay with HL-60(TB) leukemia and in the assay on SNB-75 CNS was more than 100 µM in each case.

With `CCCCNC(=S)Nn1c(-c2ccccc2)nc2ccccc2c1=O`, the TGI with SK-MEL-5 melanoma, in the assay with HT29 colon, in the assay with COLO 205 colon, in the assay on SN12C renal, with MALME-3M melanoma and in the assay with RPMI-8226 leukemia was more than 100 µM throughout. Moreover, the TGI with ACHN renal, with HL-60(TB) leukemia and in the assay on SNB-75 CNS was more than 100 µM each time.

For the compound `CC(=O)Oc1c(-c2ccccc2)[nH]c2cc([N+](=O)[O-])c(/C(Cl)=C/c3ccccc3)cc12`, the TGI in the assay with SK-MEL-5 melanoma was 3.75 µM; in the assay with HT29 colon it was 11.1 µM; in the assay on COLO 205 colon, 19.6 µM; in the assay with SN12C renal, 19.4 µM; in the assay with RPMI-8226 leukemia, more than 100 µM; with ACHN renal it was 46.6 µM. Also, the TGI in the assay on HL-60(TB) leukemia is 10.7 µM; in the assay with SNB-75 CNS, more than 100 µM.

Take `CC(C)NC(=O)OCc1nnn2c1C(OC(=O)NC(C)C)CC2` (centres undefined): the TGI with SK-MEL-5 melanoma, with HT29 colon, with COLO 205 colon, in the assay with SN12C renal, in the assay with MALME-3M melanoma and in the assay with RPMI-8226 leukemia was more than 100 µM each time. Moreover, the TGI with SNB-75 CNS was more than 100 µM.

In the case of `N/C(=N\N=C\c1ccc2c(c1)OCO2)NO`, the TGI in the assay with SK-MEL-5 melanoma was 35.2 µM; with HT29 colon, more than 100 µM; in the assay with COLO 205 colon, 40.3 µM; with SN12C renal it was more than 100 µM; in the assay on MALME-3M melanoma, 86.8 µM; in the assay with RPMI-8226 leukemia, 56.9 µM. The TGI worked out at 47.9 µM in the assay with ACHN renal and 36 µM with HL-60(TB) leukemia.

Take `Cc1ccc(S(=O)(=O)NCCCN(CCCNS(=O)(=O)c2ccc(C)cc2)S(=O)(=O)c2ccc(C)cc2)cc1`: the TGI in the assay on COLO 205 colon, with SN12C renal, in the assay on MALME-3M melanoma, in the assay on RPMI-8226 leukemia, in the assay on ACHN renal and in the assay on HL-60(TB) leukemia was more than 100 µM each time. Also, the TGI in the assay on SNB-75 CNS is more than 100 µM.

Regarding `C=CCCc1cc(OC)ccc1CN(C)C(C)(C)CO`, the TGI with SK-MEL-5 melanoma, in the assay with HT29 colon, with COLO 205 colon, with SN12C renal, with MALME-3M melanoma and in the assay with RPMI-8226 leukemia was more than 100 µM each time. For the same compound, the TGI in the assay with ACHN renal and in the assay with SNB-75 CNS was more than 100 µM in each case.

Turning to `COCCNC(=O)C1C(=O)N(CCOC)C(=O)/C1=N/N` (centres undefined), the TGI in the assay with HT29 colon, with SN12C renal, in the assay on MALME-3M melanoma, with RPMI-8226 leukemia, in the assay on ACHN renal and in the assay with HL-60(TB) leukemia was more than 100 µM throughout. This compound also returned a TGI in the assay with SNB-75 CNS of more than 100 µM.

Regarding `COC1OC(OC)C2C(c3c(C)cc(C)cc3C)=NOC12` (centres undefined), the TGI in the assay on SK-MEL-5 melanoma, with HT29 colon, with COLO 205 colon, with MALME-3M melanoma, in the assay on RPMI-8226 leukemia and with ACHN renal was more than 100 µM throughout. Further, the TGI with HL-60(TB) leukemia and with SNB-75 CNS was more than 100 µM each time.

`COc1ccc(C(=O)O/N=C2\CCCC\C2=C/c2ccccc2)cc1`: the TGI with SK-MEL-5 melanoma, with HT29 colon, in the assay on COLO 205 colon, with SN12C renal, with ACHN renal and with HL-60(TB) leukemia was more than 100 µM throughout. For the same compound, in the assay with SNB-75 CNS, the TGI stood at 62 µM.

For `CCCCN(CCCC)C(=Nc1ccccc1)N(CCCC)CCCC`, the TGI in the assay with HT29 colon was more than 100 µM; in the assay on COLO 205 colon, 14 µM; in the assay with MALME-3M melanoma it was 22.5 µM; in the assay with RPMI-8226 leukemia it was 4.42 µM; with ACHN renal it was 82 µM; in the assay with HL-60(TB) leukemia, 4.09 µM. Further, the TGI with SNB-75 CNS worked out at 37.7 µM.

Turning to `N#Cc1c([N+](=O)[O-])cc(C(F)(F)F)cc1[N+](=O)[O-]`, the TGI in the assay on SK-MEL-5 melanoma stood at 23.8 µM; with HT29 colon, 9.36 µM; with COLO 205 colon, 14.8 µM; in the assay on SN12C renal it was 27.3 µM; in the assay with MALME-3M melanoma, 25.5 µM; with RPMI-8226 leukemia, 6.28 µM. Moreover, the TGI in the assay on ACHN renal amounted to 20 µM; in the assay on SNB-75 CNS, 20.1 µM.

For the compound `c1ccc([CH2][Sn]([CH2]c2ccccc2)([S]c2cccc3cccnc23)[S]c2cccc3cccnc23)cc1`, the GI50 in the assay on SK-MEL-5 melanoma was 0.299 µM; in the assay with HT29 colon it was 0.175 µM; in the assay on COLO 205 colon, 0.0801 µM; in the assay on SN12C renal it was 0.303 µM; in the assay on ACHN renal it was 0.302 µM; with HL-60(TB) leukemia, 0.273 µM. In addition, the GI50 with SNB-75 CNS was 0.749 µM. Moreover, the TGI with SK-MEL-5 melanoma worked out at 1.18 µM; with HT29 colon it was 0.39 µM; in the assay on COLO 205 colon it was 0.366 µM; in the assay on SN12C renal, 1.19 µM; with ACHN renal, 0.985 µM; in the assay with HL-60(TB) leukemia, 0.687 µM. In addition, the TGI with SNB-75 CNS was determined as 2.02 µM.

For `CN(C)CCCn1cnc2ncccc2c1=O`, the TGI in the assay on SK-MEL-5 melanoma, in the assay on HT29 colon, with COLO 205 colon, with SN12C renal, in the assay on MALME-3M melanoma and in the assay with ACHN renal was more than 100 µM each time. For the same compound, the TGI in the assay with SNB-75 CNS is more than 100 µM.

For the compound `Cc1c(C(=O)/C=C/c2ccco2)[n+](=O)c2ccccc2n1[O-]`, the TGI with HT29 colon, in the assay with COLO 205 colon, in the assay on SN12C renal, with MALME-3M melanoma, in the assay with RPMI-8226 leukemia and with ACHN renal was more than 100 µM each time. The TGI with HL-60(TB) leukemia and in the assay on SNB-75 CNS was more than 100 µM in each case.

Regarding `CN1CCC(O)C(CNC23CC4CC(CC(C4)C2)C3)C1` (centres undefined), the TGI in the assay with SK-MEL-5 melanoma, in the assay on HT29 colon, in the assay on COLO 205 colon, with SN12C renal, in the assay on MALME-3M melanoma and in the assay on ACHN renal was more than 100 µM in each case. The TGI in the assay with HL-60(TB) leukemia is more than 100 µM.

For `O=c1c(Cl)nsnc1Cl`, the TGI came to 32.8 µM in the assay with SK-MEL-5 melanoma; 60.2 µM in the assay on HT29 colon; 3.87 µM in the assay with COLO 205 colon; 48.4 µM in the assay on SN12C renal; 84.5 µM with MALME-3M melanoma; 5.22 µM in the assay with RPMI-8226 leukemia. The TGI was 14.7 µM in the assay with ACHN renal and more than 53.1 µM in the assay on SNB-75 CNS.

Take `CCS[C@H]1NC(=O)C1[C@H](C)O[Si](C)(C)C(C)(C)C` (some centres undefined): the TGI in the assay on HT29 colon, in the assay with COLO 205 colon, in the assay on SN12C renal, in the assay on MALME-3M melanoma, in the assay on RPMI-8226 leukemia and in the assay with ACHN renal was more than 100 µM in each case. This compound also showed a TGI in the assay on SNB-75 CNS of more than 100 µM.
